The values below come from PubChem BioAssay (NCI).

Holding throughout (experiment): NCI-60 cell line screen, 48 h
In assay [1] the test system is A549 NSCLC.
For assay [2], the system named is A498 renal.
The subject of assay [3] is NCI-H226 lung.
Assay [4] concerns IGROV1 ovarian.
The subject of assay [5] is SK-MEL-2 melanoma.
In assay [6] the test system is K-562 leukemia.
Assay [7] deals with UACC-62 melanoma.
For assay [8], the system named is T-47D breast.
Assay [9] relates to HCT-116 colon.
Assay [10] has as its system HS 578T breast.

The structures appear in SMILES notation.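 Values below derive from 48-hour exposures of cells grown in 96-well plates, with endpoints linearly interpolated between the two concentrations bracketing the appropriate inhibition level. GI50 = concentration required for 50% inhibition of growth. The concentration for full growth arrest is given as TGI.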

`O=c1cc(-c2ccccc2)oc2c1ccc1ccccc12`: the GI50 was 23.8 µM in [1]; 11.1 µM in assay [2]; 18.9 µM in assay [3]; 14.1 µM in [4]; 74.7 µM in [5]; 49500 nM in [6]. Moreover, the GI50 in [7] is 12300 nM; in assay [8], 23.9 µM; in assay [9], 20.3 µM; in assay [10], 23.4 µM. For the same molecule, the TGI is above 100 µM in assay [1]; 44.1 µM in assay [2]; 59.5 µM in [3]; 55.8 µM in assay [4]; above 100 µM in assay [5]; above 100 µM in [6]. In addition, the TGI in [7] is above 100 µM; in [8], above 100 µM; in assay [9] it was above 100000 nM; in assay [10], 83.2 µM.
On to `CC1(C)CCc2c(c(N=Nc3ccccc3F)c3ccccc3c2O)O1`, for which the GI50 was 34 µM in assay [1]; 25.9 µM in [2]; 38.7 µM in assay [3]; 32.4 µM in assay [4]; above 100 µM in assay [5]; above 100000 nM in assay [6]. Further, the GI50 was above 100000 nM in assay [7], 36.9 µM in assay [8], 27.7 µM in assay [9] and 28.6 µM in [10]. Further, the TGI in assay [1], in [2], in assay [3], in assay [4], in [5] and in [6] was above 100 µM each time. Moreover, the TGI in assay [7] was above 100 µM; in assay [8], above 100 µM; in [9], above 100000 nM; in assay [10] it was 99.7 µM.
Regarding `CCCCC(OC(=O)c1ccc(N)cc1)C(=O)Nc1nc(CC(=O)OCC)cs1` (stereo not given), the GI50 in assay [1] was 37.5 µM; in [2] it was 57.4 µM; in assay [3], 43.5 µM; in assay [4], 51 µM; in [5] it was 25.7 µM; in assay [6] it was 32800 nM. Also, the GI50 in [7] is 51600 nM; in assay [8], 38.7 µM; in [9], 37.3 µM; in assay [10], 43.4 µM. Further, the TGI in [1] was above 100 µM; in assay [2], above 100 µM; in [3] it was above 100 µM; in assay [4] it was above 100 µM; in assay [5], 77.4 µM; in [6], above 100 µM. Besides, the TGI was above 100 µM in assay [7], above 100 µM in assay [8], above 100000 nM in assay [9] and above 100 µM in [10].
For `COc1ccc(CNCCCN2C(=O)c3ccc4c5c(ccc(c35)C2=O)C(=O)N(CCCNCc2ccc(OC)c(OC)c2OC)C4=O)c(OC)c1OC`, the GI50 in assay [1] was 0.103 µM; in assay [2] it was 0.61 µM; in assay [3], 0.337 µM; in [4], 0.0795 µM; in [5], 0.0911 µM; in [6], 168 nM. The GI50 is 93 nM in assay [7], 0.0983 µM in [8], 0.0773 µM in assay [9] and 0.568 µM in [10]. The TGI in [1] stood at 0.231 µM; in [2] it was 1.25 µM; in assay [3], 1.1 µM; in assay [4], 0.189 µM; in assay [5], 0.191 µM; in assay [6] it was 0.515 µM. Also, the TGI in assay [7] amounted to 0.182 µM; in assay [8] it was 0.213 µM; in assay [9], 169 nM; in assay [10] it was 3.15 µM.
Take `COc1ccc(-c2cc(-c3ccc(OC)cc3)nc(NCCCNc3ccnc4cc(Cl)ccc34)n2)cc1`: the GI50 in [1] was 1.81 µM; in assay [2], 5.32 µM; in [3], 11.3 µM; in assay [4] it was 1.51 µM; in assay [5], 14 µM; in assay [6] it was 1790 nM. Further, the GI50 in [7] was 2760 nM; in assay [8] it was 1.66 µM; in assay [9] it was 1.45 µM; in assay [10] it was 14.9 µM. For the same molecule, the TGI in [1] is 3.66 µM; in [2], 18.3 µM; in assay [3], 28.2 µM; in assay [4] it was 3.12 µM; in assay [5], 28.4 µM; in assay [6], 4.6 µM. The TGI in assay [7] turned out to be 7.26 µM; in assay [8] it was 3.9 µM; in [9] it was 2760 nM; in [10] it was 44.8 µM.
Turning to `CCOC(=O)c1c2c(n3ccc(NC(=O)CCN4CCCCC4)cc13)C(=O)c1ncccc1C2=O`, the GI50 in [1] was 0.0547 µM; in assay [2], 0.806 µM; in [3], 4.32 µM; in assay [4] it was 0.348 µM; in [5], 3.99 µM; in assay [6], 117 nM. In addition, the GI50 in [7] was 281 nM; in assay [8], 8 µM; in assay [9] it was 0.106 µM; in assay [10], 0.351 µM. Besides, the TGI amounted to 2.81 µM in [1]; 29 µM in assay [2]; 11.3 µM in assay [3]; 2.54 µM in assay [4]; 23.8 µM in assay [5]; 2.57 µM in assay [6]. In addition, the TGI worked out at 2.65 µM in assay [7], 30.2 µM in assay [8], 2210 nM in assay [9] and 6.57 µM in [10].
